# Test system: 475296-252-R-J1-PDC spheroid viability
# Assay: Anticancer human tumor 475296-252-R-J1-PDC patient-derived rectal carcinoma cell line growth inhibition [PI3K]
# Details: second compound 10 µM; first compound 0.0316 µM; stronger effect = lower value; spheroids with HUVEC and MSC
# Procedure, shortened: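 Tumor cells grown as multi-cell spheroids with HUVEC endothelial cells and MSC fibroblast-like stroma were treated with targeted agents combined with inavolisib, alpelisib, duvelisib or copanlisib. Doses fell in half-log steps from near clinical Cmax, else from 10 microM. Viability was measured.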
# 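Further: spheroids exposed to agents for seven days before readout.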
row,Compound,"viability, T/C [%]"
1,Cn1ncc(Cl)c1-c1cc(C(=O)NC(CN)Cc2cccc(F)c2)sc1Cl (configuration not stated) + Cc1nc(NC(=O)N2CCCC2C(N)=O)sc1-c1ccnc(C(C)(C)C(F)(F)F)c1,84.8
2,Cn1nccc1Nc1nccc(-c2ccn(C(CO)c3ccc(Cl)c(F)c3)c(=O)c2)n1 (configuration not stated) + Cc1nc(NC(=O)N2CCCC2C(N)=O)sc1-c1ccnc(C(C)(C)C(F)(F)F)c1,87.7

# Same assay, conditions: second compound 10 µM; first compound 0.1 µM; stronger effect = lower value; spheroids with HUVEC and MSC
row,Compound,"viability, T/C [%]"
1,C#Cc1c(F)ccc2cc(O)cc(-c3ncc4c(N5CC6CCC(C5)N6)nc(OCC56CCCN5CC(F)C6)nc4c3F)c12 (configuration not stated) + Cc1nc(NC(=O)N2CCCC2C(N)=O)sc1-c1ccnc(C(C)(C)C(F)(F)F)c1,70.2
2,C=CC(=O)N1CCN(c2nc(=O)n(-c3c(C)ccnc3C(C)C)c3nc(-c4c(O)cccc4F)c(F)cc23)C(C)C1 (configuration not stated) + Cc1nc(NC(=O)N2CCCC2C(N)=O)sc1-c1ccnc(C(C)(C)C(F)(F)F)c1,87.8
3,CC(Cn1ccc(-c2ccc(C#N)c(Cl)c2)n1)NC(=O)c1cc(C(C)O)[nH]n1 (configuration not stated) + Cc1nc(NC(=O)N2CCCC2C(N)=O)sc1-c1ccnc(C(C)(C)C(F)(F)F)c1,84.3
4,Cn1ncc(Cl)c1-c1cc(C(=O)NC(CN)Cc2cccc(F)c2)sc1Cl (configuration not stated) + Cc1nc(NC(=O)N2CCCC2C(N)=O)sc1-c1ccnc(C(C)(C)C(F)(F)F)c1,78.8
5,Cn1nccc1Nc1nccc(-c2ccn(C(CO)c3ccc(Cl)c(F)c3)c(=O)c2)n1 (configuration not stated) + Cc1nc(NC(=O)N2CCCC2C(N)=O)sc1-c1ccnc(C(C)(C)C(F)(F)F)c1,86

# Same assay, conditions: second compound 10 µM; first compound 0.316 µM; stronger effect = lower value; spheroids with HUVEC and MSC
row,Compound,"viability, T/C [%]"
1,C#Cc1c(F)ccc2cc(O)cc(-c3ncc4c(N5CC6CCC(C5)N6)nc(OCC56CCCN5CC(F)C6)nc4c3F)c12 (configuration not stated) + Cc1nc(NC(=O)N2CCCC2C(N)=O)sc1-c1ccnc(C(C)(C)C(F)(F)F)c1,46.6
2,C=CC(=O)N1CCN(c2nc(=O)n(-c3c(C)ccnc3C(C)C)c3nc(-c4c(O)cccc4F)c(F)cc23)C(C)C1 (configuration not stated) + Cc1nc(NC(=O)N2CCCC2C(N)=O)sc1-c1ccnc(C(C)(C)C(F)(F)F)c1,95.5
3,CC(Cn1ccc(-c2ccc(C#N)c(Cl)c2)n1)NC(=O)c1cc(C(C)O)[nH]n1 (configuration not stated) + Cc1nc(NC(=O)N2CCCC2C(N)=O)sc1-c1ccnc(C(C)(C)C(F)(F)F)c1,97
4,Cn1ncc(Cl)c1-c1cc(C(=O)NC(CN)Cc2cccc(F)c2)sc1Cl (configuration not stated) + Cc1nc(NC(=O)N2CCCC2C(N)=O)sc1-c1ccnc(C(C)(C)C(F)(F)F)c1,81.7
5,Cn1nccc1Nc1nccc(-c2ccn(C(CO)c3ccc(Cl)c(F)c3)c(=O)c2)n1 (configuration not stated) + Cc1nc(NC(=O)N2CCCC2C(N)=O)sc1-c1ccnc(C(C)(C)C(F)(F)F)c1,83.7

# Same assay, conditions: second compound 10 µM; first compound 1 µM; stronger effect = lower value; spheroids with HUVEC and MSC
row,Compound,"viability, T/C [%]"
1,C#Cc1c(F)ccc2cc(O)cc(-c3ncc4c(N5CC6CCC(C5)N6)nc(OCC56CCCN5CC(F)C6)nc4c3F)c12 (configuration not stated) + Cc1nc(NC(=O)N2CCCC2C(N)=O)sc1-c1ccnc(C(C)(C)C(F)(F)F)c1,9.2
2,C=CC(=O)N1CCN(c2nc(=O)n(-c3c(C)ccnc3C(C)C)c3nc(-c4c(O)cccc4F)c(F)cc23)C(C)C1 (configuration not stated) + Cc1nc(NC(=O)N2CCCC2C(N)=O)sc1-c1ccnc(C(C)(C)C(F)(F)F)c1,94.2
3,CC(Cn1ccc(-c2ccc(C#N)c(Cl)c2)n1)NC(=O)c1cc(C(C)O)[nH]n1 (configuration not stated) + Cc1nc(NC(=O)N2CCCC2C(N)=O)sc1-c1ccnc(C(C)(C)C(F)(F)F)c1,98.9
4,Cn1ncc(Cl)c1-c1cc(C(=O)NC(CN)Cc2cccc(F)c2)sc1Cl (configuration not stated) + Cc1nc(NC(=O)N2CCCC2C(N)=O)sc1-c1ccnc(C(C)(C)C(F)(F)F)c1,69.3
5,Cn1nccc1Nc1nccc(-c2ccn(C(CO)c3ccc(Cl)c(F)c3)c(=O)c2)n1 (configuration not stated) + Cc1nc(NC(=O)N2CCCC2C(N)=O)sc1-c1ccnc(C(C)(C)C(F)(F)F)c1,63.1

# Same assay, conditions: second compound 10 µM; first compound 3.16 µM; stronger effect = lower value; spheroids with HUVEC and MSC
row,Compound,"viability, T/C [%]"
1,C#Cc1c(F)ccc2cc(O)cc(-c3ncc4c(N5CC6CCC(C5)N6)nc(OCC56CCCN5CC(F)C6)nc4c3F)c12 (configuration not stated) + Cc1nc(NC(=O)N2CCCC2C(N)=O)sc1-c1ccnc(C(C)(C)C(F)(F)F)c1,5.28
2,C=CC(=O)N1CCN(c2nc(=O)n(-c3c(C)ccnc3C(C)C)c3nc(-c4c(O)cccc4F)c(F)cc23)C(C)C1 (configuration not stated) + Cc1nc(NC(=O)N2CCCC2C(N)=O)sc1-c1ccnc(C(C)(C)C(F)(F)F)c1,95.2
3,CC(Cn1ccc(-c2ccc(C#N)c(Cl)c2)n1)NC(=O)c1cc(C(C)O)[nH]n1 (configuration not stated) + Cc1nc(NC(=O)N2CCCC2C(N)=O)sc1-c1ccnc(C(C)(C)C(F)(F)F)c1,95
4,Cn1ncc(Cl)c1-c1cc(C(=O)NC(CN)Cc2cccc(F)c2)sc1Cl (configuration not stated) + Cc1nc(NC(=O)N2CCCC2C(N)=O)sc1-c1ccnc(C(C)(C)C(F)(F)F)c1,57.6
5,Cn1nccc1Nc1nccc(-c2ccn(C(CO)c3ccc(Cl)c(F)c3)c(=O)c2)n1 (configuration not stated) + Cc1nc(NC(=O)N2CCCC2C(N)=O)sc1-c1ccnc(C(C)(C)C(F)(F)F)c1,21.8

# Same assay, conditions: second compound 10 µM; first compound 10 µM; stronger effect = lower value; spheroids with HUVEC and MSC
row,Compound,"viability, T/C [%]"
1,C#Cc1c(F)ccc2cc(O)cc(-c3ncc4c(N5CC6CCC(C5)N6)nc(OCC56CCCN5CC(F)C6)nc4c3F)c12 (configuration not stated) + Cc1nc(NC(=O)N2CCCC2C(N)=O)sc1-c1ccnc(C(C)(C)C(F)(F)F)c1,3.54
2,C=CC(=O)N1CCN(c2nc(=O)n(-c3c(C)ccnc3C(C)C)c3nc(-c4c(O)cccc4F)c(F)cc23)C(C)C1 (configuration not stated) + Cc1nc(NC(=O)N2CCCC2C(N)=O)sc1-c1ccnc(C(C)(C)C(F)(F)F)c1,80.6
3,CC(Cn1ccc(-c2ccc(C#N)c(Cl)c2)n1)NC(=O)c1cc(C(C)O)[nH]n1 (configuration not stated) + Cc1nc(NC(=O)N2CCCC2C(N)=O)sc1-c1ccnc(C(C)(C)C(F)(F)F)c1,91.2
4,Cn1ncc(Cl)c1-c1cc(C(=O)NC(CN)Cc2cccc(F)c2)sc1Cl (configuration not stated) + Cc1nc(NC(=O)N2CCCC2C(N)=O)sc1-c1ccnc(C(C)(C)C(F)(F)F)c1,28.5
5,Cn1nccc1Nc1nccc(-c2ccn(C(CO)c3ccc(Cl)c(F)c3)c(=O)c2)n1 (configuration not stated) + Cc1nc(NC(=O)N2CCCC2C(N)=O)sc1-c1ccnc(C(C)(C)C(F)(F)F)c1,8.46
